Assay results as given in patent US12371454B2, “Cyclic peptide compound having Kras inhibitory action” (priority 2019, dated 2025).
Starred links: 1 amine or outer side, 2 acyl side, 3 side chain; linkers in the order of their positions; H or OH if unused. Positions of bridges follow the written chain, without caps; N, C: chain ends. Non-standard residues stand in square brackets, D forms with d. Residues, ends and D or L forms follow the SMILES beside them. *: point of attachment. hPhe(3-Cl-4-CF3) = N[C@@H](CCc1ccc(C(F)(F)F)c(Cl)c1)C(=O)O; hPhe(3-F,4-CF3) = N[C@@H](CCc1ccc(C(F)(F)F)c(F)c1)C(=O)O; Thiomorpholino(1,1-dioxo) = O=S1(=O)CCN(*)CC1; NMePhe(4-Cl) = CN[C@@H](Cc1ccc(Cl)cc1)C(=O)O; X55 = C[C@@](Cc1cccc(I)c1)(N[*:1])C(=O)[*:2]; NMePhe(4-Me) = CN[C@@H](Cc1ccc(C)cc1)C(=O)O; NMePhe(3-I) = CN[C@@H](Cc1cccc(I)c1)C(=O)O; NMePhe(4-F) = CN[C@@H](Cc1ccc(F)cc1)C(=O)O; hPhe(4-Cl) = N[C@@H](CCc1ccc(Cl)cc1)C(=O)O; NMeAla(cPent) = CN[C@@H](CC1CCCC1)C(=O)O; NMeGly(cPent) = CN[C@H](C(=O)O)C1CCCC1; dβ3hPip = O=C(C[C@H]1CCCCN1[*:1])[*:2]; X70 = CC(C)(O)COCCN(CC(=O)[*:2])[*:1]; NMeCha = CN[C@@H](CC1CCCCC1)C(=O)O; NMeI = CC[C@H](C)[C@H](NC)C(=O)O; N(CH2CH2)2CF2 = FC1(F)CCN(*)CC1; NMeD = CN[C@@H](CC(=O)O)C(=O)O; NMeL = CN[C@@H](CC(C)C)C(=O)O; NMeV = CN[C@H](C(=O)O)C(C)C; NMeA = CN[C@@H](C)C(=O)O; NMeAib = CNC(C)(C)C(=O)O; Nle = CCCC[C@H](N)C(=O)O; Piperidide = C1CCN(*)CC1; Ac5c = NC1(C(=O)O)CCCC1; Aze = O=C(O)[C@@H]1CCN1; Sar = CNCC(=O)O

Each compound was assayed against T1, Kras and SOS1 (biotin-tagged human Kras loaded with GDP, His-tagged human SOS1) (Homo sapiens, UniProt P01116, G12D) (assay: Protein-protein interaction inhibition between Kras and SOS1 (KrasGl2D-SOS PPI) using AlphaScreen). Settings: AlphaScreen; biotin-tagged human Kras loaded with GDP, His-tagged human SOS1; read-out: KRAS G12D-SOS PPI IC50.
T1 construct: made in house; host or cells: E. coli (stated for Kras only)
T1 sequence (P01116 1-188 isoform P01116-2 G12D): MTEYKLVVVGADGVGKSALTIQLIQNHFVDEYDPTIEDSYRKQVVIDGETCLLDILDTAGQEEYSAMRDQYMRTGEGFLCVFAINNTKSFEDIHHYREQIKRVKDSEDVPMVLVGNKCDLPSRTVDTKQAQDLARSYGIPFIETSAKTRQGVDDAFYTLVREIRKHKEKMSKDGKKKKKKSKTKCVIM
Type: binding
Outline: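 Donor beads (nickel) hold His-SOS1; acceptor beads (streptavidin) hold biotin-Kras bound to GDP. Signal measured at 520-620 nm following 680 nm excitation.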

| Structure (SMILES) | IC50 [nM] |
| --- | --- |
| CC[C@H](C)[C@@H]1NC(=O)[C@H](CC(C)C)N(C)C(=O)C[C@@H](C(=O)N2CCS(=O)(=O)CC2)N(C)C(=O)[C@H](C2CCCC2)N(C)C(=O)C2(CCCC2)NC(=O)[C@H](CC(=O)N2CCC(F)(F)CC2)N(C)C(=O)[C@H](CCc2ccc(C(F)(F)F)c(Cl)c2)NC(=O)CN(C)C(=O)[C@H](CC2CCCCC2)N(C)C(=O)[C@@H]2CCN2C(=O)[C@H](C)N(C)C1=O [Compound 780] ([NMeL]I[NMeA][Aze][NMeCha][Sar][hPhe(3-Cl-4-CF3)][NMeD](N(CH2CH2)2CF2)[Ac5c][NMeGly(cPent)][NMeD]-{Thiomorpholino(1,1-dioxo)}; lactam N-11) | 21 |
| CC[C@H](C)[C@@H]1NC(=O)[C@H](CC(C)C)N(C)C(=O)C[C@@H](C(=O)N2CCCCC2)N(C)C(=O)[C@H](C(C)C)N(C)C(=O)[C@H](C)NC(=O)[C@H](CC(=O)N2CCC(F)(F)CC2)N(C)C(=O)[C@H](CCc2ccc(C(F)(F)F)c(Cl)c2)NC(=O)CN(C)C(=O)[C@H](CC2CCCCC2)N(C)C(=O)CN(C)C(=O)CN(C)C1=O [Compound 444] ([NMeL]I[Sar][Sar][NMeCha][Sar][hPhe(3-Cl-4-CF3)][NMeD](N(CH2CH2)2CF2)A[NMeV][NMeD]-Piperidide; lactam N-11) | 18 |
| CC[C@H](C)[C@@H]1NC(=O)[C@H](CC(C)C)N(C)C(=O)C[C@@H](C(=O)N(C)C)N(C)C(=O)[C@H]([C@@H](C)CC)N(C)C(=O)C2(CCCC2)NC(=O)CN(CCOCC(C)(C)O)C(=O)[C@H](CCc2ccc(C(F)(F)F)c(Cl)c2)NC(=O)CN(C)C(=O)[C@H](CC2CCCCC2)N(C)C(=O)[C@@H]2CCN2C(=O)[C@H](C)N(C)C1=O [Compound 2028] ([NMeL]I[NMeA][Aze][NMeCha][Sar][hPhe(3-Cl-4-CF3)][X70][Ac5c][NMeI][NMeD]-NMe2; lactam N-11) | 11 |
| CC[C@H](C)[C@@H]1NC(=O)[C@H](CC(C)C)N(C)C(=O)C[C@@H](C(=O)N2CCCCC2)N(C)C(=O)[C@H](CC2CCCCC2)N(C)C(=O)C2(CCCC2)NC(=O)[C@@H]2CCCN2C(=O)[C@H](CCc2ccc(C(F)(F)F)c(Cl)c2)NC(=O)CN(C)C(=O)[C@H](CC2CCCCC2)N(C)C(=O)CN(C)C(=O)CN(C)C1=O [Compound 577] ([NMeL]I[Sar][Sar][NMeCha][Sar][hPhe(3-Cl-4-CF3)]P[Ac5c][NMeCha][NMeD]-Piperidide; lactam N-11) | 21 |
| CCCC[C@@H]1NC(=O)[C@](C)(Cc2cccc(I)c2)NC(=O)CN(C)C(=O)[C@H](Cc2ccc(Cl)cc2)N(C)C(=O)CN(C)C(=O)CN(C)C(=O)[C@H]([C@@H](C)CC)NC(=O)[C@H](CC(C)C)N(C)C(=O)C[C@@H](C(=O)N2CCCCC2)N(C)C(=O)[C@H](CC(C)C)NC(=O)C(C)(C)N(C)C1=O [Compound 1202] ([NMeL]I[Sar][Sar][NMePhe(4-Cl)][Sar][X55][Nle][NMeAib]L[NMeD]-Piperidide; lactam N-11) | 240 |
| CC[C@H](C)[C@@H]1NC(=O)[C@H](CC(C)C)N(C)C(=O)C[C@@H](C(=O)N2CCCCC2)N(C)C(=O)[C@H](C(C)C)N(C)C(=O)C2(CCCC2)NC(=O)[C@@H]2CCCN2C(=O)[C@H](CCc2ccc(Cl)cc2)NC(=O)CN(C)C(=O)[C@H](CC2CCCC2)N(C)C(=O)CN(C)C(=O)CN(C)C1=O [Compound 167] ([NMeL]I[Sar][Sar][NMeAla(cPent)][Sar][hPhe(4-Cl)]P[Ac5c][NMeV][NMeD]-Piperidide; lactam N-11) | 58 |
| CC[C@H](C)[C@@H]1NC(=O)[C@H](CC(C)C)N(C)C(=O)C[C@@H](C(=O)N(C)C)N(C)C(=O)[C@H]([C@@H](C)CC)N(C)C(=O)C2(CCCC2)NC(=O)[C@H](Cc2cccc(I)c2)N(C)C(=O)[C@H](CCc2ccc(C(F)(F)F)c(Cl)c2)NC(=O)CN(C)C(=O)[C@H](Cc2ccc(C)cc2)N(C)C(=O)[C@@H]2CCN2C(=O)[C@H](C)N(C)C1=O [Compound 1910] ([NMeL]I[NMeA][Aze][NMePhe(4-Me)][Sar][hPhe(3-Cl-4-CF3)][NMePhe(3-I)][Ac5c][NMeI][NMeD]-NMe2; lactam N-11) | 60 |
| CC[C@H](C)[C@@H]1NC(=O)[C@H](C)N(C)C(=O)C[C@@H](C(=O)N2CCCCC2)N(C)C(=O)[C@H](C(C)C)N(C)C(=O)C2(CCCC2)NC(=O)[C@H](Cc2ccc(F)cc2)N(C)C(=O)[C@H](CCc2ccc(C(F)(F)F)c(Cl)c2)NC(=O)CN(C)C(=O)[C@H](CC2CCCCC2)N(C)C(=O)CN(C)C(=O)CN(C)C1=O [Compound 821] ([NMeA]I[Sar][Sar][NMeCha][Sar][hPhe(3-Cl-4-CF3)][NMePhe(4-F)][Ac5c][NMeV][NMeD]-Piperidide; lactam N-11) | 12 |
| CC[C@H](C)[C@@H]1NC(=O)[C@H](CC(C)C)N(C)C(=O)C[C@H]2CCCCN2C(=O)[C@H](C(C)C)N(C)C(=O)C2(CCCC2)NC(=O)[C@@H]2CCCN2C(=O)[C@H](CCc2ccc(C(F)(F)F)c(F)c2)NC(=O)CN(C)C(=O)[C@H](CC2CCCCC2)N(C)C(=O)CN(C)C(=O)CN(C)C1=O [Compound 142] (cyclo([Ac5c][NMeV][dβ3hPip][NMeL]I[Sar][Sar][NMeCha][Sar][hPhe(3-F,4-CF3)]P)) | 38 |
